# Laboratory results from US20260124240A1, “DRUG RESISTANT IMMUNE CELLS” (The Regents of the University of California, priority 2022, published 2026).
# Key:
# [1] = system: Heterozygous BCL2 G101V iPSC-derived NK cells (BCL2G101V/WT); assay: Venetoclax dose response / cell survival assay on heterozygous BCL2 G101V iPSC-derived NK cells; assay type: cell-based; settings: Homo sapiens, viability at 72 hours post treatment
# Method: (§1) FIGS. 12A-12H: BCL2 G101V iPSC-derived NK cells are resistant to venetoclax and anti-apoptotic BCL2 family member levels are unchanged. Dose response curves for WT iPSC-derived NK (FIG. 12A), Homozygous BCL2 G101V iPSC-derived NK cells (FIG. 12B), and Heterozygous BCL2 G101V iPSC-derived NK cells (FIG. 12C) treated with Venetoclax and assessed for viability at 72 hours post treatment. FIG. 12D. Dose response for WT iPSC-derived NK and homozygous BCL2 G101V iPSC-derived NK cells treated with dexamethasone and assessed for viability at 72 hours post treatment. […] real-time PCR analysis of BCL2 (FIG. 12E), BCL-XL (FIG. 12F), and MCL1 (FIG. 12G) mRNA level for WT iPSC-derived NK and BCL2 G101V iPSC-derived NK cells vehicle or venetoclax treated. FIG. 12H. Immunoblots for BCL2, and BCL-XL protein levels with a β-actin loading control.
# (§2) Resistance to venetoclax of the heterozygous and homozygous BCL2 G101V iPSC-derived NK cells was tested in cell survival assays.
# [2] = system: WT iPSC-derived NK cells (BCL2WT/WT); assay: Venetoclax dose response / cell survival assay on WT iPSC-derived NK cells; assay type: cell-based, human
# Method: as §1, §2
# [3] = system: luciferase-expressing, venetoclax-resistant MOLM-13 cells; assay: Mouse xenograft study (MOLM13 AML); assay type: in vivo; settings: NSG mice, 1×10^7 NK cells IV, venetoclax 50 mg/kg daily for 21 days where given
# Method: FIG. 15: A schema of NK cell dosing regimen and venetoclax treatment plan. NSG mice were inoculated IV with 2.5×10^5 luciferase-expressing MOLM13 cells, and tumor engraftment was assessed by IVIS imaging 4 days later for baseline pre-treatment grouping. On day 4 after tumor inoculation, mice were either left untreated or treated with 1×10^7 WT iPSC-derived NK cells or BCL2 G101V iPSC-derived NK cells alone or in combination with venetoclax for 21 days. NK cells were supported by injection of IL-15 for the first week and IL-2 for three weeks with IVIS imaging done as indicated to monitor tumor progression.
# Eight-week-old NOD/SCID/γc−/− (NSG) mice (Jackson Laboratories, n=5 per group) were used for in vivo experiments. Mice received 2.5×10^5 luciferase-expressing MOLM13 tumor cells intravenously. Mice were sub-lethally irradiated (225 cGy) 4 days after tumor engraftment. 107 NK cells/mouse were injected IV on the day of irradiation. NK cells were supported by the injection of IL-2 and IL-15 as reported previously 27, 28. […] Tumor burden was determined by BLI using the Xenogen IVIS Imaging system. […]
# To evaluate the anti-tumor activity of BCL2G101V/G101V NK cells in vivo, BCL2G101V/G101V iPSC-derived NK cell killing of MOLM13 AML cells was assessed in a mouse xenograft tumor model. […] Tumor growth was monitored by bioluminescent imaging (BLI) (FIG. 16A).
# [4] = system: Homozygous BCL2 G101V iPSC-derived NK cells (1F6); assay: Venetoclax dose response / cell survival assay on homozygous BCL2 G101V (1F6) iPSC-derived NK cells; assay type: cell-based; settings: Homo sapiens; homozygous BCL2G101V/G101V (1F6) NK cells; viability at 72 hours post treatment; read-out: EC50 where 50% of the NK cells are killed by venetoclax
# Method: as §1, §2
# [5] = dose of 400 mg/day; cited from earlier work
# [6] = system: venetoclax-resistant MOLM13 cells; assay: Venetoclax sensitivity of venetoclax-resistant MOLM13 cells; assay type: cell-based
# Method: The MOLM13 cells lines were cultured continuously in increasing concentrations of venetoclax over 6 weeks to generate and select for venetoclax-resistant cells. The resulting cells could be maintained in 3 μM venetoclax without toxicity. The resistant cells were cultured continuously in the presence of venetoclax.
# (§3) For longer-term assays to examine the ability of BCL2G101V/G101V iPSC-derived NK cells to mediate effective killing of venetoclax-resistant AML cells, MOLM13 cells that are venetoclax-resistant were generated.
# WT MOLM13 cells = assay: Venetoclax sensitivity of WT MOLM13 cells; assay type: cell-based; settings: Homo sapiens, MOLM-13
# Source text: as §3
smiles,measurement,setting,value
CC1(C)CCC(CN2CCN(c3ccc(C(=O)NS(=O)(=O)c4ccc(NCC5CCOCC5)c([N+](=O)[O-])c4)c(Oc4cnc5[nH]ccc5c4)c3)CC2)=C(c2ccc(Cl)cc2)C1 [venetoclax],EC50,[1],3550 nM
same,EC50,"[2]; Homo sapiens, WT iPSC-derived NK cells, viability at 72 hours post treatment, read-out: EC50 where 50% of the NK cells are killed by venetoclax",63.7 nM
same,toxicity to unengineered NK cells,[2]; at serum concentration of 2.3 μmol/L,toxic
same,median survival,[3],18.8 days
same,EC50,[4],6020 nM
same,serum concentration,[5],2300 nM
same,increased resistance to venetoclax compared to WT MOLM13 cells,[6]; venetoclax-resistant MOLM13,over 100 fold
same,venetoclax concentration in which resistant cells could be maintained without toxicity,"[6]; venetoclax-resistant MOLM13, selected over 6 weeks",3 µM
same,IC50,WT MOLM13 cells,24 nM
